Laboratory results as given in US8663646B2, “P53 peptide vaccine” (priority 2007, dated 2014).

Legend:
HLA-A*2401 [1] = assay: Competition based cellular binding assay, HLA-A*2401 (B-cell line VIJF); design: species or system human; conditions: for HLA binding Affinity (Table 5): HLA type A24; for Peptide Binding Affinity: HLA-A*2401, IC50 category
HLA-A*2401 [2] = assay: Stability of peptide-HLA complex, binding at 4° C. and 20° C., HLA-A*2401; design: species or system human; conditions: for HLA binding Stability (Table 5): HLA type A24; for Peptide Binding Stability: HLA-A*2401, IC50 at 20° C. vs 4° C.
Description: Stability of other peptide-HLA complexes was preferably determined as follows. […] Peptides of >50% of the initial complexes was lost within 2 hours were considered unstable. […] The rest was designated as unstable peptide binding.
Peptides 8-11 residues in length were selected based on typical anchor residues for HLA-A*0101, A*0301, A*1101 and HLA-A*2401 (Rammensee H G et al). The capacity of peptides to bind was tested in a competition based cellular binding assay as previously described (van der Burg S H et al 1995). FL-labeled reference peptides were synthesized as Cys-derivative (van der Burg S H et al 1995). Fluorescence labeled reference peptides used were: YLEPAC(FL)AK (SEQ ID NO: 87) (HLA-A*0101) and KVFPC(FL)ALINK (SEQ ID NO: 88) (HLA-A*1101) (Sette A et al), KVFPC(FL)ALINK (SEQ ID NO: 89) (HLAA*0301) (van der Burg S H et al 1995) and RYLKC(FL)QQLL (SEQ ID NO: 90) (A*2401) (Dai L C et al). B-cell lines used are: CAA (A*0101), EKR (A*0301), BVR (A*1101), VIJF (A*2401). The relative binding capacity of the peptides is expressed as the peptide concentration to inhibit 50% (1050) of the binding of the reference peptide. […] Peptide stabilization for HLA-A*0201 was performed as previously described (van der Burg S H et al, 1996). Peptides of >50% of the initial complexes was lost within 2 hours were considered unstable. Stability of other peptide-HLA complexes was determined as follows. Peptide binding was performed at 4° C. and 20° C. and 1050 were determined. […] The rest was designated as unstable peptide binding.

Compound: CC(C)C[C@H](NC(=O)[C@H](Cc1ccc(O)cc1)NC(=O)[C@@H](N)CCC(=O)O)C(=O)N[C@@H](CC(=O)O)C(=O)N[C@@H](CC(=O)O)C(=O)N[C@@H](CCCNC(=N)N)C(=O)N[C@@H](CC(N)=O)C(=O)N[C@H](C(=O)N[C@@H](Cc1ccccc1)C(=O)O)[C@@H](C)O [p53 204-212]
- HLA binding Affinity (Table 5) (HLA-A*2401 [1]): high
- Peptide Binding Affinity (HLA-A*2401 [1]): high
- HLA binding Stability (Table 5) (HLA-A*2401 [2]): + (Stable peptides displayed IC50 at 20 °C that deviated <2 times of the IC50 at 4° C.)
- Peptide Binding Stability (HLA-A*2401 [2]): + (Stable peptides displayed IC50 at 20 °C that deviated <2 times of the IC50 at 4° C.)

Compound: CSCC[C@H](N)C(=O)N[C@@H](Cc1ccccc1)C(=O)N[C@@H](CCCNC(=N)N)C(=O)N[C@@H](CCC(=O)O)C(=O)N[C@@H](CC(C)C)C(=O)N[C@@H](CC(N)=O)C(=O)N[C@@H](CCC(=O)O)C(=O)N[C@@H](C)C(=O)N[C@@H](CC(C)C)C(=O)O [p53 340-348, MFRELNEAL]
- HLA binding Affinity (Table 5) (HLA-A*2401 [1]): high
- Peptide Binding Affinity (HLA-A*2401 [1]): high
- HLA binding Stability (Table 5) (HLA-A*2401 [2]): +/− (Peptides that displayed IC50 at 20 °C of more than twice the IC50 at 4 °C but IC50 < 15 μM were considered to bind with intermediate stability.)
- Peptide Binding Stability (HLA-A*2401 [2]): +/− (Peptides that displayed IC50 at 20 °C of more than twice the IC50 at 4 °C but IC50 < 15 μM were considered to bind with intermediate stability.)
